Laboratory results from patent US9708314B2, “Heterocyclic amide compound” (NISSAN CHEMICAL INDUSTRIES, LTD., priority 2013, dated 2017).

Legend:
Assay type in all cases: in vivo
[1] = test system: directly sowed Oryza sativa; experiment: Test Example 3: effect on crop by application to foliage (Wagner pot, water depth 0.1-0.5 cm); conditions: Nineteenth Table; application to foliage; application herbicide amount 320 g/ha
Method in brief: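 Visual 0–5 rating of herbicidal ratio, taken 3 weeks after foliar spray of a diluted emulsion formulation at rates expressed as g/ha. Plants had been sown in alluvial soil under 0.1–0.5 cm water and grown 14 days at 25–30 °C under glass before application.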

Glycine max = experiment: Test Example 4: effect on crop by application to foliage (diluvial soil, plastic box); conditions: 320 g/ha; for c (Glycine max) effect on crop grade: foliage application
Method in brief: (§1)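 Seeds sown in sterilized diluvial soil, covered ~1.5 cm, grown 14 days in greenhouse at 25° C. to 30° C. Emulsion formulation diluted in water to set rate (g/ha) and sprayed onto stems and leaves. Effect scored visually 3 weeks later on 0–5 scale (5 = ≥90% herbicidal ratio, 0 = ≤5%).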

[2] = test system: directly sowed Oryza sativa; experiment: as above; conditions: 320 g/ha; for d (directly sowed Oryza sativa) effect on crop grade: foliage application
Method in brief: as §1

Triticum aestivum = experiment: as above; conditions: 320 g/ha; for e (Triticum aestivum) effect on crop grade: foliage application
Method in brief: as §1

[3] = test system: Beta vulgaris ssp. vulgaris; experiment: as above; conditions: 320 g/ha; for f (Beta vulgaris ssp. vulgaris) effect on crop grade: foliage application
Method in brief: as §1

Brassica campestris L. = experiment: as above; conditions: 320 g/ha; for g (Brassica campestris L.) effect on crop grade: foliage application
Method in brief: as §1

Abutilon theophrasti = experiment: Test Example 4: herbicidal effect by application to foliage (diluvial soil, plastic box); conditions: 320 g/ha; for M (Abutilon theophrasti) herbicidal effect grade: foliage application
Method in brief: as §1

Setaria viridis = experiment: as above; conditions: 320 g/ha; for G (Setaria viridis) herbicidal effect grade: foliage application
Method in brief: as §1

Avena fatua = experiment: as above; conditions: 320 g/ha; for I (Avena fatua) herbicidal effect grade: foliage application
Method in brief: as §1

Digitaria ciliaris = experiment: as above; conditions: 320 g/ha; for F (Digitaria ciliaris) herbicidal effect grade: foliage application
Method in brief: as §1

Amaranthus retroflexus = experiment: as above; conditions: 320 g/ha; for N (Amaranthus retroflexus) herbicidal effect grade: foliage application
Method in brief: as §1

Veronica persica = experiment: as above; conditions: application to foliage, 320 g/ha
Method in brief: as §1

Galium spurium = experiment: as above; conditions: 320 g/ha; for Q (Galium spurium) herbicidal effect grade: foliage application
Method in brief: as §1

Chenopodium album = experiment: as above; conditions: 320 g/ha; for O (Chenopodium album) herbicidal effect grade: foliage application
Method in brief: as §1

Lolium multiflorum Lam. = experiment: as above; conditions: 320 g/ha; for K (Lolium multiflorum Lam.) herbicidal effect grade: foliage application
Method in brief: as §1

Apera spica-venti. = experiment: as above; conditions: 320 g/ha; for L (Apera spica-venti.) herbicidal effect grade: foliage application
Method in brief: as §1

[4] = test system: Echinochloa crus-galli var. crus-galli; experiment: as above; conditions: 320 g/ha; for H (Echinochloa crus-galli var. crus-galli) herbicidal effect grade: foliage application
Method in brief: as §1

Stellaria media = experiment: as above; conditions: 320 g/ha; for P (Stellaria media) herbicidal effect grade: foliage application
Method in brief: as §1

Alopecurus myosuroides = experiment: as above; conditions: 320 g/ha; for J (Alopecurus myosuroides) herbicidal effect grade: foliage application
Method in brief: as §1

Zea mays = experiment: Test Example 4: effect on crop by application to foliage (diluvial soil, plastic box); conditions: foliage application, 320 g/ha
Method in brief: as §1

Row | Structure (SMILES) | b (effect on crop grade) [1] | c (Glycine max) effect on crop grade (Glycine max) | d (directly sowed Oryza sativa) effect on crop grade [2] | e (Triticum aestivum) effect on crop grade (Triticum aestivum) | f (Beta vulgaris ssp. vulgaris) effect on crop grade [3] | g (Brassica campestris L.) effect on crop grade (Brassica campestris L.) | b (Zea mays) effect on crop grade (Zea mays) | M (Abutilon theophrasti) herbicidal effect grade (Abutilon theophrasti) | G (Setaria viridis) herbicidal effect grade (Setaria viridis) | I (Avena fatua) herbicidal effect grade (Avena fatua) | F (Digitaria ciliaris) herbicidal effect grade (Digitaria ciliaris) | N (Amaranthus retroflexus) herbicidal effect grade (Amaranthus retroflexus) | Q (Galium spurium) herbicidal effect grade (Galium spurium) | O (Chenopodium album) herbicidal effect grade (Chenopodium album) | K (Lolium multiflorum Lam.) herbicidal effect grade (Lolium multiflorum Lam.) | L (Apera spica-venti.) herbicidal effect grade (Apera spica-venti.) | H (Echinochloa crus-galli var. crus-galli) herbicidal effect grade [4] | P (Stellaria media) herbicidal effect grade (Stellaria media) | J (Alopecurus myosuroides) herbicidal effect grade (Alopecurus myosuroides) | further results
1 | Cn1nnnc1NC(=O)c1ccc(C(F)(F)F)n2c(SCC3CC3)nnc12 [2-084] | 5 (Herbicidal ratio of 90% or more (almost completely withered)) |  |  |  |  |  |  |  |  |  |  |  |  |  |  |  |  |  |  | effect on crop, c (Glycine max) (Glycine max; application to foliage): 1 (Herbicidal ratio of 5% or more and less than 20%); effect on crop, d (directly sowed Oryza sativa) ([2]; application to foliage): 3 (Herbicidal ratio of 40% or more and less than 70%); effect on crop, e (Triticum aestivum) (Triticum aestivum; application to foliage): 3 (Herbicidal ratio of 40% or more and less than 70%); effect on crop, f (Beta vulgaris ssp. vulgaris) ([3]; application to foliage): 5 (Herbicidal ratio of 90% or more (almost completely withered)); effect on crop, g (Brassica campestris L.) (Brassica campestris L.; application to foliage): 3 (Herbicidal ratio of 40% or more and less than 70%); herbicidal effect, M (Abutilon theophrasti) (Abutilon theophrasti; application to foliage): 5 (Herbicidal ratio of 90% or more (almost completely withered)); herbicidal effect, G (Setaria viridis) (Setaria viridis; application to foliage): 5 (Herbicidal ratio of 90% or more (almost completely withered)); herbicidal effect, I (Avena fatua) (Avena fatua; application to foliage): 4 (Herbicidal ratio of 70% or more and less than 90%); herbicidal effect, F (Digitaria ciliaris) (Digitaria ciliaris; application to foliage): 5 (Herbicidal ratio of 90% or more (almost completely withered)); herbicidal effect, N (Amaranthus retroflexus) (Amaranthus retroflexus; application to foliage): 5 (Herbicidal ratio of 90% or more (almost completely withered)); herbicidal effect, R (Veronica persica) (Veronica persica): 3 (Herbicidal ratio of 40% or more and less than 70%); herbicidal effect, Q (Galium spurium) (Galium spurium; application to foliage): 4 (Herbicidal ratio of 70% or more and less than 90%); herbicidal effect, O (Chenopodium album) (Chenopodium album; application to foliage): 5 (Herbicidal ratio of 90% or more (almost completely withered)); herbicidal effect, K (Lolium multiflorum Lam.) (Lolium multiflorum Lam.; application to foliage): 3 (Herbicidal ratio of 40% or more and less than 70%); herbicidal effect, L (Apera spica-venti.) (Apera spica-venti.; application to foliage): 4 (Herbicidal ratio of 70% or more and less than 90%); herbicidal effect, H (Echinochloa crus-galli var. crus-galli) ([4]; application to foliage): 5 (Herbicidal ratio of 90% or more (almost completely withered)); herbicidal effect, P (Stellaria media) (Stellaria media; application to foliage): 5 (Herbicidal ratio of 90% or more (almost completely withered)); herbicidal effect, J (Alopecurus myosuroides) (Alopecurus myosuroides; application to foliage): 3 (Herbicidal ratio of 40% or more and less than 70%)
2 | CSCCn1nnnc1NC(=O)c1ccc(C(F)(F)F)n2c(C(C)C)nnc12 [2-048] | 3 (Herbicidal ratio of 40% or more and less than 70%) | 4 (Herbicidal ratio of 70% or more and less than 90%) | 5 (Herbicidal ratio of 90% or more (almost completely withered)) | 4 (Herbicidal ratio of 70% or more and less than 90%) | 5 (Herbicidal ratio of 90% or more (almost completely withered)) | 5 (Herbicidal ratio of 90% or more (almost completely withered)) | 4 (Herbicidal ratio of 70% or more and less than 90%) | 5 (Herbicidal ratio of 90% or more (almost completely withered)) | 5 (Herbicidal ratio of 90% or more (almost completely withered)) | 4 (Herbicidal ratio of 70% or more and less than 90%) | 5 (Herbicidal ratio of 90% or more (almost completely withered)) | 5 (Herbicidal ratio of 90% or more (almost completely withered)) | 4 (Herbicidal ratio of 70% or more and less than 90%) | 5 (Herbicidal ratio of 90% or more (almost completely withered)) | 4 (Herbicidal ratio of 70% or more and less than 90%) | 4 (Herbicidal ratio of 70% or more and less than 90%) | 5 (Herbicidal ratio of 90% or more (almost completely withered)) | 4 (Herbicidal ratio of 70% or more and less than 90%) | 3 (Herbicidal ratio of 40% or more and less than 70%) | 
3 | CC(c1nnc2c(C(=O)Nc3nnnn3C)ccc(C(F)(F)F)n12)[S+](C)[O-] (stereo not shown) [2-053] | 5 (Herbicidal ratio of 90% or more (almost completely withered)) | 4 (Herbicidal ratio of 70% or more and less than 90%) | 5 (Herbicidal ratio of 90% or more (almost completely withered)) | 5 (Herbicidal ratio of 90% or more (almost completely withered)) | 5 (Herbicidal ratio of 90% or more (almost completely withered)) | 5 (Herbicidal ratio of 90% or more (almost completely withered)) | 5 (Herbicidal ratio of 90% or more (almost completely withered)) | 5 (Herbicidal ratio of 90% or more (almost completely withered)) | 5 (Herbicidal ratio of 90% or more (almost completely withered)) | 5 (Herbicidal ratio of 90% or more (almost completely withered)) | 5 (Herbicidal ratio of 90% or more (almost completely withered)) | 5 (Herbicidal ratio of 90% or more (almost completely withered)) | 5 (Herbicidal ratio of 90% or more (almost completely withered)) | 5 (Herbicidal ratio of 90% or more (almost completely withered)) | 4 (Herbicidal ratio of 70% or more and less than 90%) | 5 (Herbicidal ratio of 90% or more (almost completely withered)) | 5 (Herbicidal ratio of 90% or more (almost completely withered)) | 5 (Herbicidal ratio of 90% or more (almost completely withered)) | 5 (Herbicidal ratio of 90% or more (almost completely withered)) | 
4 | Cn1nnnc1NC(=O)c1ccc(C(F)(F)F)n2c(Nc3ccccc3)nnc12 [2-056] | 4 (Herbicidal ratio of 70% or more and less than 90%) | 1 (Herbicidal ratio of 5% or more and less than 20%) | 3 (Herbicidal ratio of 40% or more and less than 70%) | 1 (Herbicidal ratio of 5% or more and less than 20%) | 5 (Herbicidal ratio of 90% or more (almost completely withered)) | 3 (Herbicidal ratio of 40% or more and less than 70%) | 0 (Herbicidal ratio of 5% or less (almost no effect)) | 4 (Herbicidal ratio of 70% or more and less than 90%) | 3 (Herbicidal ratio of 40% or more and less than 70%) | 1 (Herbicidal ratio of 5% or more and less than 20%) | 5 (Herbicidal ratio of 90% or more (almost completely withered)) | 4 (Herbicidal ratio of 70% or more and less than 90%) | 4 (Herbicidal ratio of 70% or more and less than 90%) | 5 (Herbicidal ratio of 90% or more (almost completely withered)) | 1 (Herbicidal ratio of 5% or more and less than 20%) | 1 (Herbicidal ratio of 5% or more and less than 20%) | 4 (Herbicidal ratio of 70% or more and less than 90%) | 5 (Herbicidal ratio of 90% or more (almost completely withered)) | 1 (Herbicidal ratio of 5% or more and less than 20%) | 
